Laboratory results from ChEMBL document CHEMBL3880408, “MgluR5 modulators” (2008).

Experiment: Ratio of drug level in brain to plasma in Sprague-Dawley rat by HPLC and MS-MS method
Format: ADME, cell-free
Details: read-out: BPR

Kp, < 0.5:
Cc1cccc(-n2nnc([C@@H](C)Oc3nnc(-c4cn[nH]c(=O)c4)n3C)n2)c1
C[C@@H](Oc1nnc(-c2cn[nH]c(=O)c2)n1C)c1cc(-c2cccc(Cl)c2)on1
C[C@@H](Oc1nnc(-c2ccn(C)c(=O)c2)n1C)c1cc(-c2cccc(Cl)c2)on1
C[C@@H](Oc1nnc(-c2cc[nH]c(=O)c2)n1C)c1noc(-c2cccc(Cl)c2)n1
C[C@@H](Oc1nnc(-c2cc[nH]c(=O)c2)n1C)c1nnn(-c2cccc(Cl)c2)n1
Cc1cccc(-c2cc([C@@H](C)Oc3nnc(-c4cn[nH]c(=O)c4)n3C)no2)c1
Cn1c(OCc2cc(-c3cccc(Cl)c3)on2)nnc1-c1cc[nH]c(=O)c1
C[C@@H](Oc1nnc(-c2cn[nH]c(=O)c2)n1C)c1nnn(-c2cccc(Cl)c2)n1
C[C@@H](Oc1nnc(-c2cn[nH]c(=O)c2)n1C)c1noc(-c2cccc(Cl)c2)n1
C[C@@H](Oc1nnc(-c2ccn(C)c(=O)c2)n1C)c1noc(-c2cccc(Cl)c2)n1
